Measurements published in US8497260B2, “2-arylbenzothiophene derivatives or pharmaceutically acceptable salts thereof, preparation method thereof, and pharmaceutical composition for the diagnosis or treatment of degenerative brain disease containing the same as active ingredient” (Industry-University Cooperation Foundation Sogang University, priority 2009, dated 2013).

Each compound was assayed against T1, β-amyloid (Aβ1-42) fibrils (Homo sapiens, UniProt P05067) (assay: Inhibitory binding assay against [125I]TZDM on β-amyloid (Aβ1-42) fibrils). Details: Aβ1-42 fibrils 10 nM, [125I]TZDM 0.05 nM, 10% ethanol, room temperature 3 hours, nonspecific binding with 2 μM ThT; read-out: Ki, relative binding affinity to [125I]TZDM (112).
T1 construct: β-Amyloid peptide (Aβ1-42, 1 mg, Bachem); purchased Bachem
T1 sequence (P05067 672-713 limits assumed): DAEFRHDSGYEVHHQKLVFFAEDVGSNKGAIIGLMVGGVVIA
Protocol: β-Amyloid peptide (Aβ1-42, 1 mg, Bachem) was completely dissolved in 1 mL of DMSO, 9 mL of phosphate buffered saline (PBS) (pH 7.4) was added thereto and well mixed. The resulting mixture was incubated at 37° C. for 60 minutes to form β-amyloid fibrils, 0.5 mL was taken and transferred to each e-tube and placed into a refrigerator maintained at −80° C.
To determine whether β-amyloid peptide was properly formed into β-amyloid fibrils, 150 μL of 5 μM Thioflavin T (ThT) was added to 50 μL of incubated β-amyloid fibrils, the fluorescence intensity of ThT binding specifically to β-amyloid fibrils at excitation/emission wavelengths (λex/λem), e.g., 450 nm/480 nm, was detected using a spectrometer.
0.850 mL of 10% Ethanol was placed into 12 mm×75 mm borosilicate test tubes, and 50 μL of β-amyloid (Aβ1-42) fibrils were added such that the final reaction concentration became 10 nM. […] Here, the nonspecific binding was performed using 2 μM Thioflavin T (ThT).

Ki [nM] | SMILES
0.1 | COc1ccc2cc(-c3ccnc(OCCCF)c3)sc2c1 [Example 28, 2-[2-(3-fluoropropoxy)pyridine-4-yl]-6-methoxybenzothiophene]
0.79 | COc1cc(-c2cc3ccc(OCCCF)cc3s2)ccn1 [Example 30, 2-(2-methoxypyridine-4-yl)-6-(3-fluoropropoxy)benzothiophene]
0.61 | COc1ccc2cc(-c3ccnc(OCCF)n3)sc2c1 [Example 31, 2-[2-(2-fluoroethoxy)pyrimidine-4-yl]-6-methoxybenzothiophene]
0.46 | COc1ccc2cc(-c3ccnc(OCCCF)n3)sc2c1 [Example 32, 2-[2-(3-fluoropropoxy)pyrimidine-4-yl]-6-methoxybenzothiophene]
0.53 | COc1ccc2cc(-c3ccnc(NCCF)n3)sc2c1 [Example 33, 2-[2-(N-(2-fluoroethyl)amino)pyrimidine-4-yl]-6-methoxybenzothiophene]
0.47 | COc1nccc(-c2cc3ccc(OCCF)cc3s2)n1 [Example 34, 2-(2-methoxypyrimidine-4-yl)-6-(2-fluoroethoxy)benzothiophene]
0.55 | CNc1nccc(-c2cc3ccc(OCCF)cc3s2)n1 [Example 35, 2-[2-(N-monomethylamino)pyrimidine-4-yl]-6-(2-fluoroethoxy)benzothiophene]
0.44 | COc1nccc(-c2cc3ccc(OCCCF)cc3s2)n1 [Example 37, 2-(2-methoxypyrimidine-4-yl)-6-(3-fluoropropoxy)benzothiophene]
0.53 | CNc1ccnc(-c2cc3ccc(OCCF)cc3s2)n1 [Example 41, 2-[4-(N-monomethylamino)pyrimidine-2-yl]-6-(2-fluoroethoxy)benzothiophene]
0.25 | CN(C)c1ccnc(-c2cc3ccc(OCCF)cc3s2)n1 [Example 42, 2-[4-(N,N-dimethylamino)pyrimidine-2-yl]-6-(2-fluoroethoxy)benzothiophene]
0.37 | CNc1ccnc(-c2cc3ccc(OCCCF)cc3s2)n1 [Example 43, 2-[4-(N-monomethylamino)pyrimidine-2-yl]-6-(3-fluoropropoxy)benzothiophene]
0.065 | COc1ccc2cc(-c3ccc(OCCF)nn3)sc2c1 [Example 44, 2-[3-(2-fluoroethoxy)pyridazine-6-yl]-6-methoxybenzothiophene]
1 | COc1ccc2cc(-c3ccc(OCCCF)nn3)sc2c1 [Example 45, 2-[3-(3-fluoropropoxy)pyridazine-6-yl]-6-methoxybenzothiophene]
0.44 | Nc1ccc(-c2cc3ccc(OCCF)cc3s2)nn1 [Example 47, 2-(3-aminopyridazine-6-yl)-6-(2-fluoroethoxy)benzothiophene]
0.3 | CNc1ccc(-c2cc3ccc(OCCF)cc3s2)nn1 [Example 48, 2-[3-(N-monomethylamino)pyridazine-6-yl]-6-(2-fluoroethoxy)benzothiophene]
0.43 | CN(C)c1ccc(-c2cc3ccc(OCCF)cc3s2)nn1 [Example 49, 2-[3-(N,N-dimethylamino)pyridazine-6-yl]-6-(2-fluoroethoxy)benzothiophene]
0.18 | COc1ccc(-c2cc3ccc(OCCCF)cc3s2)nn1 [Example 50, 2-(3-methoxypyridazine-6-yl)-6-(3-fluoropropoxy)benzothiophene]
0.38 | Nc1ccc(-c2cc3ccc(OCCCF)cc3s2)nn1 [Example 51, 2-(3-aminopyridazine-6-yl)-6-(3-fluoropropoxy)benzothiophene]
0.55 | CNc1ccc(-c2cc3ccc(OCCCF)cc3s2)nn1 [Example 52, 2-[3-(N-monomethylamino)pyridazine-6-yl]-6-(3-fluoropropoxy)benzothiophene]
0.65 | CN(C)c1ccc(-c2cc3ccc(OCCCF)cc3s2)nn1 [Example 53, 2-[3-(N,N-dimethylamino)pyridazine-6-yl]-6-(3-fluoropropoxy)benzothiophene]
0.45 | COc1ccc2cc(-c3cncc(OCCCF)n3)sc2c1 [Example 55, 2-[2-(3-fluoropropoxy)pyrazine-6-yl]-6-methoxybenzothiophene]

Second part, the compound before the results:

SMILES | Ki [nM]
COc1cccc2sc(-c3ccc([N+](=O)[O-])cc3)cc12 [Example 1, 2-(4-nitrophenyl)-4-methoxybenzothiophene] | 0.73
COc1ccc2cc(-c3cccc([N+](=O)[O-])c3)sc2c1 [Example 2, 2-(3-nitrophenyl)-6-methoxybenzothiophene] | 0.65
COc1ccc2cc(-c3ccc([N+](=O)[O-])cc3)sc2c1 [Example 3, 2-(4-nitrophenyl)-6-methoxybenzothiophene] | 2.3
COc1ccc2cc(-c3ccc(N)cc3)sc2c1 [Example 8, 2-(4-aminophenyl)-6-methoxybenzothiophene] | 0.51
Nc1ccc(-c2cc3ccc(OCCF)cc3s2)cc1 [Example 9, 2-(4-aminophenyl)-6-(2-fluoroethoxy)benzothiophene] | 0.38
CNc1ccc(-c2cc3ccc(OC)cc3s2)cc1 [Example 11, 2-[4-(N-monomethylamino)phenyl]-6-methoxybenzothiophene] | 0.43
COc1cccc2sc(-c3ccc(N(C)C)cc3)cc12 [Example 14, 2-[4-(N,N-dimethylamino)phenyl]-4-methoxybenzothiophene] | 0.77
COc1ccc2cc(-c3ccc(N(C)C)cc3)sc2c1 [Example 15, 2-[4-(N,N-dimethylamino)phenyl]-6-methoxybenzothiophene] | 1.58
COc1ccc2cc(-c3ccc(OCCF)nc3)sc2c1 [Example 18, 2-[2-(2-fluoroethoxy)pyridine-5-yl]-6-methoxybenzothiophene] | 0.09
COc1ccc2cc(-c3ccc(OCCCF)nc3)sc2c1 [Example 19, 2-[2-(3-fluoropropoxy)pyridine-5-yl]-6-methoxybenzothiophene] | 0.39
COc1ccc(-c2cc3ccc(OCCF)cc3s2)cn1 [Example 20, 2-(2-methoxypyridine-5-yl)-6-(2-fluoroethoxy)benzothiophene] | 1.32
Nc1ccc(-c2cc3ccc(OCCF)cc3s2)cn1 [Example 21, 2-(2-aminopyridine-5-yl)-6-(2-fluoroethoxy)benzothiophene] | 1.11
CNc1ccc(-c2cc3ccc(OCCF)cc3s2)cn1 [Example 22, 2-[2-(N-monomethylamino)pyridine-5-yl]-6-(2-fluoroethoxy)benzothiophene] | 0.46
CN(C)c1ccc(-c2cc3ccc(OCCF)cc3s2)cn1 [Example 23, 2-[2-(N,N-dimethylamino)pyridine-5-yl]-6-(2-fluoroethoxy)benzothiophene] | 0.72
Nc1ccc(-c2cc3ccc(OCCCF)cc3s2)cn1 [Example 24, 2-(2-aminopyridine-5-yl)-6-(3-fluoropropoxy)benzothiophene] | 1.18
CNc1ccc(-c2cc3ccc(OCCCF)cc3s2)cn1 [Example 25, 2-[2-(N-monomethylamino)pyridine-5-yl]-6-(3-fluoropropoxy)benzothiophene] | 0.06
CN(C)c1ccc(-c2cc3ccc(OCCCF)cc3s2)cn1 [Example 26, 2-[2-(N,N-dimethylamino)pyridine-5-yl]-6-(3-fluoropropoxy)benzothiophene] | 0.09
COc1ccc2cc(-c3ccnc(OCCF)c3)sc2c1 [Example 27, 2-[2-(2-fluoroethoxy)pyridine-4-yl]-6-methoxybenzothiophene] | 0.83
